Read-outs that look alike come from different tables or passages of the source. Where a SMILES comes first, the peptide text is derived from it.
Assays:
Type in all cases: cell-based
[1] = tested on: recombinant IgG producing Chinese Hamster Ovary cell line (CHO cell line #1); experiment: 24-well plate media supplement screening: peak viable cell density (CellTiter 96 AQueous)
Procedure: (§1) 24-well plates were utilized at a working volume of 1.5 mL per well to serve as the platform for media supplement screening. An in-house, base chemically defined media (CDM #1) was used as the basal media for the purposes of the experiments. A recombinant IgG producing Chinese Hamster Ovary cell line (CHO cell line #1) was used for the media supplement screening phase of the experiments.
All 24-well plate screening experiments were designed using JMP7 commercially available statistics software (Cary, N.C.) using custom experimental options. Six individual media supplement screening experiments were performed to test over a hundred different supplements in statistically designed experiments and in a serial fashion. All screening experiments were performed at […] cultured at 210 rpm on a shaker table in a 5% humidified CO2 incubator. Gas permeable, rayon film plate covers (VWR International, Radnor, Pa., Catalog #60941-086) were employed as necessary to provide a sterile barrier between the well plates, the plastic plate cover, and the culture atmosphere. Supplement solutions were manually pipetted into the respective plate wells using concentrated, sterile stock solutions. The comprehensive list of media supplements evaluated for cell culture process improvement is shown below in Table 2:
(§2) Two cell culture performance indicators were measured in the high-throughput screening experiments: peak viable cell density and harvest titer. Time point samples were withdrawn from each of the respective plate wells on Days 6, 7, and 8 post inoculation and measured for their respective viable cell densities spectrophotometrically via the CellTiter 96 AQueous Solution Cell Proliferation Assay Kits™ (Promega, Madison, Wis.). Harvest Titer measurements were conducted via high performance liquid chromatography (HPLC) with a Poros A™ affinity column (Applied Biosystems, Foster City, Calif.). All experimental wells supplemented with a particular combination of media compounds were compared to an unsupplemented control, with the results expressed as relative values relative to the control.
(§3) Two cell culture performance indicators were measured in the high-throughput screening experiments as well as media verification experiments; peak viable cell density (VCD) and harvest titer. […] A few days after the last cell count measurement sample the plates were centrifuged and the supernatant was collected and stored at −80° C. for future analysis. Harvest titer measurements were conducted via high performance liquid chromatography (HPLC) with a Poros A™ affinity column (Applied Biosystems, Foster City, Calif.). All experimental wells supplemented with a particular combination of media compounds were compared to an unsupplemented control, with the results expressed as values relative to the control. For the media verification experiments in larger-scale shaker and spinner flasks, viable cell density and viability were measured via Cedex automated cell counters (Roche Applied Science, Indianapolis, Ind.). Harvest titer measurements were similarly measured via HPLC.
(§4) Standard Analysis of Variance (ANOVA) was used to measure the significance of individual supplements and their respective interactions towards the resulting cell culture technique performance. Individual analyses were conducted on both peak viable cell density and harvest titer for each of the respective screening experiments. Three different levels of each media supplement were used in these experiments: unsupplemented (Level 1), lightly supplemented (Level 2), and heavily supplemented (Level 3). […] The optimization subroutine intrinsic to the statistics software was used to analyze the screening dataset determine the identity of a high performance media blend. It is important to note that the selection method is a mathematical exercise which can lead to multiple blends identified as having the highest performance parameters, and the results are highly dependent on the initial first guess.

[2] = tested on: recombinant IgG producing Chinese Hamster Ovary cell line (CHO cell line #1); experiment: Supplement screening: process performance (peak VCD and/or harvest titer) by inspectional/statistical analysis
Procedure: as §4, with “guess. Three particular high performance blends were identified for further evaluation: […] The supplements whose relative concentrations supported a distinct pattern of either increasing or decreasing process performance were categorized into the clustered classification. […] These supplements were either compounds or groups of similar compounds such as polyamines, essential amino acids, and vitamins.” for “guess.”

[3] = tested on: recombinant IgG producing Chinese Hamster Ovary cell line (CHO cell line #1); experiment: 24-well plate media supplement screening: harvest titer (HPLC, Poros A affinity column)
Procedure: as §1
All 24-well plate screening experiments were designed using JMP7 commercially available statistics software (Cary, N.C.) using custom experimental options. Six individual media supplement screening experiments were performed to test over a hundred different supplements in statistically designed experiments and in a serial fashion. […] Supplement solutions were manually pipetted into the respective plate wells using concentrated, sterile stock solutions. The comprehensive list of media supplements evaluated for cell culture process improvement is shown below in Table 2:
as §2, §3, §4
The aforementioned supplements were evaluated for improvements in cell culture technique performance.

[4] = tested on: recombinant IgG producing Chinese Hamster Ovary cell line (CHO cell line #1); experiment: JMP7 statistical identification of high performance media supplementation from a 15-supplement screening experiment
Procedure: as §4
Fifteen of these supplements, or groups of supplements, were screened in a separate statistically designed experiment for the final determination of high performance media blends for the maximization of peak VCD, harvest titer, and both of these variables simultaneously.
The JMP7 statistical software program was further used to identify the high performance media supplementation for maximizing peak VCD, harvest titer, and both simultaneously.

[5] = HTS experiments, CDM #1, relative to unsupplemented control
[6] = univariate analysis of varying supplement concentrations
[7] = range given, variability in culture volumes
[8] = predicted amount for addition into the unsupplemented control media

Compound | Effect on Peak VCD [1, 5] | Effect on Harvest Titer [3, 5] | further results
OC[C@H]1O[C@H](O[C@H]2[C@H](O)[C@@H](O)C(O)O[C@@H]2CO)[C@H](O)[C@@H](O)[C@@H]1O (mixture of isomers) [Maltose] | No change | Increase | Process Performance Pattern [2, 6]: Wide dispersal
CCCCC/C=C\C/C=C\C/C=C\C/C=C\CCCC(=O)O [Arachidonic acid] | Decrease | Decrease | 
O=C(O)CCCC[C@@H]1SC[C@@H]2NC(=O)N[C@@H]21 [Biotin] | No change | No change | 
C[N+](C)(C)CCO.[Cl-] [Choline chloride] |  |  | Effect on Peak VCD [1]: No change; Process Performance Pattern [2]: Wide dispersal; Effect on Harvest Titer [3]: No change
O=S(=O)([O-])[O-].[Cu+2] [Cupric sulfate] |  |  | Effect on Peak VCD [1]: Increase; Process Performance Pattern [2]: Wide dispersal; Effect on Harvest Titer [3]: Decrease; Concentration Target (Range) for Increase of Harvest Titer [4]: 0 g/L; Concentration Target (Range) for Increase of Peak VCD [4]: +0.02 g/L; Concentration Target (Range) for Increase of Peak VCD and Harvest Titer [4]: 0 g/L
N[C@@H](CSSC[C@H](N)C(=O)O)C(=O)O [Cystine, L-cystine] | Decrease | Decrease | 
O=C(O)CN(CCN(CC(=O)O)CC(=O)O)CC(=O)O [EDTA] | Increase | Decrease | 
NCCO [Ethanolamine] | Increase | Decrease | 
Nc1nc(=O)c2nc(CNc3ccc(C(=O)N[C@@H](CCC(=O)O)C(=O)O)cc3)cnc2[nH]1 [Folate] |  |  | Process Performance Pattern [2, 6]: Wide dispersal
O=C(CO)[C@@H](O)[C@H](O)[C@H](O)CO [Fructose] | No change | No change | 
CC(=O)N[C@H]1C(O)O[C@H](CO)[C@H](O)[C@@H]1O (some centres unmarked) [GalNAc, N-acetylgalactosamine] | No change | Decrease | 
CC(=O)N[C@H]1C(O)O[C@H](CO)[C@@H](O)[C@@H]1O (some centres unmarked) [GlcNAc, N-acetylglucosamine] | Decrease | No change | 
N[C@@H](CCC(=O)N[C@@H](CS)C(=O)NCC(=O)O)C(=O)O [Glutathione, Glutathione, reduced] | Decrease | Decrease | 
C[C@]12CCC(=O)C=C1CC[C@@H]1[C@@H]2[C@@H](O)C[C@@]2(C)[C@H]1CC[C@]2(O)C(=O)CO [Hydrocortisone, reference compound] | No change | Increase | 
O=c1[nH]cnc2nc[nH]c12 [Hypoxanthine] |  |  | Concentration Range for Increase of Harvest Titer [4, 7]: (6.76 × 10^−4-8.68 × 10^−4) g/L; Concentration Range for Increase of Peak VCD and Harvest Titer [4, 7]: (6.76 × 10^−4-8.68 × 10^−4) g/L
C[C@H](N)C(=O)N[C@@H](CCC(N)=O)C(=O)O [L-alanyl-L-glutamine] (H-Ala-Gln-OH) | Increase | No change | 
Cl.N[C@@H](Cc1cnc[nH]1)C(=O)O.O [L-histidine*HCl*H2O] |  |  | Concentration Target (Range) for Increase of Harvest Titer [4, 8]: +0.25 (0.22-0.28) g/L; Concentration Target (Range) for Increase of Peak VCD [4, 8]: +0.21 (0.18-0.23) g/L; Concentration Target (Range) for Increase of Peak VCD and Harvest Titer [4, 8]: +0.25 (0.22-0.28) g/L

Compound | Effect on Peak VCD [1, 5] | Effect on Harvest Titer [3, 5] | further results
CCCCC/C=C\C/C=C\CCCCCCCC(=O)O [Linoleic acid] | No change | Increase | 
NC(=O)c1cccnc1 [Nicotinamide] | Decrease | No change | 
Nc1ccc(C(=O)O)cc1 [PABA, Para-amino benzoic acid] | Decrease | No change | 
O=P(O)(O)O [Potassium phosphate] |  |  | Effect on Peak VCD [1]: Increase; Process Performance Pattern [2]: Clustered; Effect on Harvest Titer [3]: Decrease; Concentration Target (Range) for Increase of Harvest Titer [4]: +0.09 (0.08-0.10) g/L; Concentration Target (Range) for Increase of Peak VCD [4]: +0.10 (0.09-0.12) g/L; Concentration Target (Range) for Increase of Peak VCD and Harvest Titer [4]: +0.10 (0.09-0.12) g/L
NCCCCN [Putrescine] | Decrease | No change | Concentration Range for Increase of Harvest Titer [4, 7]: ( 1.06 × 10^−4-1.36 × 10^−4) g/L; Concentration Range for Increase of Peak VCD and Harvest Titer [4, 7]: (1.06 × 10^−4-1.36 × 10^−4) g/L
Cc1cc2nc3c(=O)[nH]c(=O)nc-3n(C[C@H](O)[C@H](O)[C@H](O)CO)c2cc1C [Riboflavin] | Decrease | No change | 
CNCC(=O)O [Sarcosine] | No change | Decrease | 
O=C([O-])CC(O)(CC(=O)[O-])C(=O)[O-].[Na+].[Na+].[Na+] [Sodium citrate] | No change | No change | 
CC(=O)C(=O)[O-].[Na+] [Sodium pyruvate] | Decrease | No change | 
NCCCCNCCCN [Spermidine, free base, Spermidine] |  |  | Concentration Range for Increase of Harvest Titer [4, 7]: (4.22 × 10^−5-5.42 × 10^−5) g/L; Concentration Range for Increase of Peak VCD and Harvest Titer [4, 7]: (4.22 × 10^−5-5.42 × 10^−5) g/L
NCCCNCCCCNCCCN [Spermine, free base, Spermine] |  |  | Concentration Range for Increase of Harvest Titer [4, 7]: (8.11 × 10^−5-1.04 × 10^−4) g/L; Concentration Range for Increase of Peak VCD and Harvest Titer [4, 7]: (8.11 × 10^−5-1.04 × 10^−4) g/L
NCCS(=O)(=O)O [Taurine] | Decrease | Decrease | 
Cc1cn([C@H]2C[C@H](O)[C@@H](CO)O2)c(=O)[nH]c1=O [Thymidine] | No change | Decrease | Process Performance Pattern [2, 6]: Wide dispersal; Concentration Range for Increase of Peak VCD [4, 7]: (1.75 × 10^−3-2.25 × 10^−3) g/L
Cc1ncc(CO)c(CO)c1O.Cl [Vitamin B-6, Pyridoxine hydrochloride] | No change | Increase | 
O=C[C@H](O)[C@@H](O)[C@H](O)CO [Xylose] | No change | Increase | Process Performance Pattern [2, 6]: Wide dispersal
Concanavalin A | Decrease | Decrease | 
Cyanocobalamin [Vitamin B-12] | No change | Decrease | 
